The text below walks through data of the Bradley open melting point set (2014).

The structures appear in SMILES notation. Values joined by “and” are separate entries in the source; they are usually repeats but may differ in a detail not shown here. Identical values can stand only once.

With `C=CC(=O)OC` [methyl acrylate], the melting point (commonly the temperature, or range, at which the solid turns liquid) is -75 °C.
For `C/C=C/CC` [trans-2-pentene], the melting point was -140 °C.
The value for `CN(C)c1ccc(CNC2=CC(=O)c3ccccc3C2=O)cc1` [2-{[4-(dimethylamino)benzyl]amino}naphthalene-1,4-dione] was 166 °C.
The figure for `COc1cc(Cc2cnc(N)nc2N)cc(OC)c1OC` [trimethoprim] is 201 °C; for `O=C(O)c1ccccc1O` [salicylic_acid] it is 160 °C; for `O=C1C=CC(=O)N1c1ccc(Br)cc1` [N-(4-bromophenyl)maleimide] it is 129 °C.
The figure for `COc1ccc(C(=O)O)cc1OCc1ccccc1` [3-benzyloxy-4-methoxybenzoic acid] is 180 °C; for `CCCCCC(O)CC` (stereo not given) [3-octanol] it is -45 °C.
The compound `CC(C)(c1ccccc1)c1ccc(O)cc1` [4-cumylphenol] showed a melting point of 72 °C.
The value for `CC1CCCCN1` (stereo not given) [2-methylpiperidine] was -4 °C; that for `O=C(O)c1ccc(Cl)cc1Cl` [2,4-dichlorobenzoic acid] was 162 °C; that for `COc1ccc(C=O)cc1OC` [veratraldehyde] was 44 °C.
On to `C[C@H](O)CN` [(2S)-1-amino-2-propanol], for which the melting point was 22.5 °C and 25 °C.
The value for `CSC` [dimethyl_sulfide] was -98 °C.
The figure for `CC(N1CCOCC1)S(=O)(=O)O` (stereo not given) [1-(Morpholin-4-yl)ethanesulfonic acid] is 243 °C; for `Clc1ccc(C(c2ccc(Cl)cc2)C(Cl)(Cl)Cl)cc1` [1,1'-(2,2,2-Trichloroethane-1,1-diyl)bis(4-chlorobenzene)] it is 108 °C.
The figure for `C/C=C/CCC` [trans-2-hexene] is -133 °C; for `CCc1ccc(C)nc1N` [2-amino-3-ethyl-6-methylpyridine] it is 47 °C.
Turning to `CCOC(=O)CCC(C)C1CCC2C3C(=O)C(Br)C4CC(OC(C)=O)CCC4(C)C3CC(OC(C)=O)C12C` (stereo not given) [ethyl 3,12-bis(acetyloxy)-6-bromo-7-oxocholan-24-oate], the melting point turned out to be 125 °C.
`CCC(C)(C)C(=O)O[C@H]1C[C@@H](C)C=C2C=C[C@H](C)[C@H](CC[C@@H]3C[C@@H](O)CC(=O)O3)[C@H]21` [Simvastatin]: the melting point is 136 °C.
The compound `COC(=O)CC(C)=O` [methyl acetoacetate] registered a melting point of -80 °C.
The figure for `Cc1ccccc1C1(C#N)Cc2ccccc2C(=O)O1` (stereo not given) is 122 °C; for `Cc1nc(N)ccc1Br` [6-amino-3-bromo-2-methylpyridine] it is 81 °C.
The figure for `CCC1C2=C(OC(=O)C1(C)C)c1ccc(OC)cc1CC2` (stereo not given) is 143 °C; for `Cc1ccc(S)c(S)c1` [4-Methylbenzene-1,2-dithiol] it is 31 °C.
The figure for `O=C(CCBr)N1CCN(C(=O)CCBr)CC1` [pipobroman] is 106 °C; for `ClC1=C(Cl)[C@]2(Cl)[C@H]3[C@H]([C@@H]4C=C[C@H]3C4)[C@@]1(Cl)C2(Cl)Cl` it is 104 °C.
`N#CCc1ccccc1CC#N` [1,2-phenylenediacetonitrile] registered a melting point of 59 °C.
The value for `C(=Cc1ccccc1)c1ccccc1` [stilbene] was 126 °C; that for `Oc1ccc2ccc(O)cc2c1` [2,7-dihydroxynaphthalene] was 186 °C; that for `OC1CCCCC1` [cyclohexanol] was 25.9 °C.
The figure for `CC1(C)OC(=O)CC(=O)O1` [Meldrum's Acid] is 98 °C; for `CN(C)CCO` [2-(Dimethylamino)ethanol] it is -70 °C.
The figure for `CC(C)[C@H](NC(=O)OCC1c2ccccc2-c2ccccc21)C(=O)O` [N-fmoc-L-valine] is 144 °C; for `CCOC(=O)c1ccc(Cl)c([N+](=O)[O-])c1` [ethyl 4-chloro-3-nitrobenzoate] it is 54 °C.
Take `CC(C)S` [2-propanethiol]: the melting point is -131 °C.
The figure for `CCCCCCCCOc1ccc(C(=O)O)cc1` [4-n-octyloxybenzoic acid] is 103 °C; for `NC(=O)c1ccc(-c2ccccc2)cc1` [biphenyl-4-carboxamide] it is 228 °C.
The figure for `CCI` [Iodoethane] is -108 °C.
For `CC(C)(C)I` [2-Iodo-2-methylpropane], the melting point is -38 °C.
The value for `O(c1ccccc1OC\C=C)CC(O)CNC(C)C` (stereo not given) [oxprenolol] was 112 °C; that for `CNC[C@H](O)c1cccc(O)c1` [Phenylephrine] was 142 °C.
The figure for `O=c1ccc2cc([N+](=O)[O-])ccc2o1` [6-nitrocoumarin] is 188 °C.
The value for `NC(=O)N1c2ccccc2C=Cc2ccccc21` [Carbamazepine] was 190 °C; that for `[O-][n+]1onc2cc(Cl)ccc21` [5-chlorobenzofuroxan] was 47 °C; that for `CCCCCCCCCCCCCCCCC(=O)O` [heptadecanoic acid] was 61 °C.
On to `COc1ccc2cc(OC)ccc2c1` [2,6-dimethoxynaphthalene], for which the melting point stood at 153 °C.
The value for `Cc1ccc([N+](=O)[O-])cc1N` [2-Methyl-5-nitroaniline] was 108 °C; that for `COc1ccc(NS(=O)(=O)c2ccc(N)cc2)nn1` [Sulfamethoxypyridazine] was 182 °C; that for `CC12CCC(/C(=C/N(Cl)c3ccccc3)C1=O)C2(C)C` (stereo not given) was 103 °C.
The value for `COc1ccc(O)cc1OC` [3,4-dimethoxyphenol] was 83 °C; that for `O=[N+]([O-])c1ccc(O)c2ncccc12` [8-hydroxy-5-nitroquinoline] was 180 °C.
The figure for `C=CCc1ccccc1C(=O)O` [2-prop-2-en-1-ylbenzoic acid] is 84 °C; for `COc1cc(N)ccc1C` [3-methoxy-4-methylaniline] it is 58 °C; for `CC1=CC[C@@H]2C[C@H]1C2(C)C` [alpha-pinene] it is -62 °C.
For the compound `Brc1ccc(Br)cc1` [1,4-dibromobenzene], the melting point is 87.3 °C and 87 °C and 88 °C.
The figure for `O=S(=O)(Nc1cccc(Cl)c1Cl)c1ccccc1` [2,3-dichloro-1-phenylsulfonamidobenzene] is 114 °C.
Take `CCC1OC(=O)C(C)C(OC2CC(C)(OC)C(O)C(C)O2)C(C)C(OC2OC(C)CC(N(C)C)C2O)C(C)(O)CC(C)C(=O)C(C)C(O)C1(C)O` (stereo not given) [erythromycin]: the melting point amounted to 135 °C.
`Clc1cccc2c1=NC(c1ccccc1)C=2c1ccccc1` (stereo not given) [7-chloro-2,3-diphenyl-1H-indole] registered a melting point of 98 °C.
The figure for `C/C(=C(/C)c1ccccc1)c1ccccc1` [[(1E)-1-Methyl-2-phenyl-1-propenyl]benzene] is 65 °C; for `CCCCC1CCCCC1` [Butylcyclohexane] it is -75 °C; for `CCCCCCCCCCCCCCC(C)O` (stereo not given) [2-hexadecanol] it is 47 °C.
The figure for `N#CC(C#N)=Nc1ccccc1` [(phenylimino)propanedinitrile] is 87 °C.
The figure for `C` [methane] is -183 °C; for `COc1cc(C=O)cc([N+](=O)[O-])c1O` [5-nitrovanillin] it is 176 °C.
